Data from US11168079B2, “Alkene compounds as farnesoid x receptor modulators” (BRISTOL-MYERS SQUIBB COMPANY, priority 2017, dated 2021).
Like-named read-outs stand apart in the source and are kept apart here.

Target: T1, human FXR (Homo sapiens, UniProt Q96RI1)
T1 sequence (Q96RI1 262-486 limits assumed): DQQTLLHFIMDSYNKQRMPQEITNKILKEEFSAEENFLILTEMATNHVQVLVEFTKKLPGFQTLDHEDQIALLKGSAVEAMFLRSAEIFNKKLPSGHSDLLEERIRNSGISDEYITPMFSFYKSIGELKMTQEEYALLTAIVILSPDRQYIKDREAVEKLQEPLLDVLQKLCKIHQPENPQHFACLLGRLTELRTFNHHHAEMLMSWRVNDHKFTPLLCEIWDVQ
Experiment: transient human FXR/Gal4-luciferase reporter assay (HLE GAL-FXR)
Details: HEK293 cells

[1] = FXR EC50 (nM), Gal4-hFXR fusion reporter, Table 1
[2] = read-out: FXR EC50, Gal4-hFXR fusion reporter, Table 1
[3] = HLE GAL-FXR EC50, Gal4-hFXR fusion reporter

| EC50 [1] | SMILES | also measured |
| --- | --- | --- |
| 63 nM | COc1cc(C(=O)O)nc2ccc(N3CC(/C=C/c4c(-c5ccccc5C(F)(F)F)noc4C4CC4)C3)cc12 [Example 154] |  |
| 784 nM | COc1cc(C(=O)O)cc(-c2nc(N3CC4C(/C=C/c5c(-c6cccnc6C(F)(F)F)noc5C5CC5)C4C3)no2)c1 (centres unmarked) [Example 155] |  |
| 43 nM | CCOc1cc(C(=O)O)nc2ccc(N3CC4C(/C=C/c5c(-c6cccnc6C(F)(F)F)noc5C5CC5)C4C3)cc12 (centres unmarked) [Example 156] |  |
| 165 nM | O=C(O)c1cc(O[C@@H]2CCOC2)c2cc(N3CC4C(/C=C/c5c(-c6cccnc6C(F)(F)F)noc5C5CC5)C4C3)ccc2n1 (some centres unmarked) [Example 157] |  |
| 555 nM | CCOc1cc(N2CC3C(/C=C/c4c(-c5ccccc5C(F)(F)F)noc4C4CC4)C3C2)cnc1C(N)=O (centres unmarked) [Example 158] |  |
| 39 nM | O=C(O)c1cc(OC2CCC2)c2cc(N3CC(/C=C/c4c(-c5c(Cl)ccnc5Cl)noc4C4CC4)C3)ccc2n1 [Example 159] |  |
| 65 nM | O=C(O)c1cc(OC2COC2)c2cc(N3CC(/C=C/c4c(-c5c(Cl)cncc5Cl)noc4C4CC4)C3)ccc2n1 [Example 160] |  |
| 192 nM | O=C(O)c1cnc2cc(N3CC4C(/C=C/c5c(-c6c(Cl)cncc6Cl)noc5C5CC5)C4C3)ccc2n1 (centres unmarked) [Example 161] |  |
| 150 nM | O=C(O)c1cc(C(F)(F)F)c2cc(N3CC(/C=C/c4c(-c5c(Cl)cncc5Cl)noc4C4CC4)C3)ccc2n1 [Example 162] |  |
| 424 nM | CCOc1cc(N2CC3C(/C=C/c4c(-c5ccccc5C(F)(F)F)noc4C4CC4)C3C2)cnc1C(=O)O (centres unmarked) [Example 163] |  |
| 297 nM | COc1cc(-c2nc(N3CC4C(/C=C/c5c(-c6c(Cl)cncc6Cl)noc5C5CC5)C4C3)no2)cc(C(=O)O)n1 (centres unmarked) [Example 164] |  |
|  | COc1cc(C(=O)O)cc(-c2nc(N3CC4C(/C=C/c5c(-c6c(Cl)cncc6Cl)noc5C5CC5)C4C3)no2)c1 (centres unmarked) [Example 165] | EC50 [2]: 222 nM |
| 29 nM | COc1cc(C(=O)O)nc2ccc(N3CC(/C=C/c4c(-c5c(Cl)cncc5Cl)noc4C4CC4)C3)cc12 [Example 166] |  |
| 308 nM | O=C(O)c1cnc2cc(N3CC(/C=C/c4c(-c5c(Cl)cncc5Cl)noc4C4CC4)C3)ccc2n1 [Example 167] |  |
| 1100 nM | COc1c(C(=O)O)cccc1-c1nc(N2CC3C(/C=C/c4c(-c5c(Cl)cncc5Cl)noc4C4CC4)C3C2)no1 (centres unmarked) [Example 168] |  |
| 223 nM | COc1cc(C(=O)O)nc2ccc(N3CC(/C=C/c4c(-c5cccnc5C(F)(F)F)noc4C4CC4)C3)cc12 [Example 169] |  |
| 50 nM | O=C(O)c1cc(OC2CCC2)c2cc(N3CC(/C=C/c4c(-c5cccnc5C(F)(F)F)noc4C4CC4)C3)ccc2n1 [Example 170] |  |
|  | COCc1cc(C(=O)O)nc2ccc(N3CC(/C=C/c4c(-c5cccnc5C(F)(F)F)noc4C4CC4)C3)cc12 [Example 171] | EC50 [2]: 65 nM |
| 375 nM | COc1cc(C(=O)O)nc2ccc(N3CC(/C=C/c4c(-c5ccccc5C(F)(F)F)noc4C4CC4)C3)nc12 [Example 173] |  |
| 37 nM | O=C(O)c1cc(OC2CC2)c2cc(N3CC(/C=C/c4c(-c5cccnc5C(F)(F)F)noc4C4CC4)C3)ccc2n1 [Example 178] |  |
| 276 nM | Cn1cc(C(=O)O)c(=O)c2ccc(N3CC4C(/C=C/c5c(-c6c(Cl)cncc6Cl)noc5C5CC5)C4C3)cc21 (centres unmarked) [Example 180] |  |
| 400 nM | Cn1cc(C(=O)O)c(=O)c2ccc(N3CC(/C=C/c4c(-c5ccccc5C(F)(F)F)noc4C4CC4)C3)cc21 [Example 181] |  |
| 72 nM | O=C(O)c1cc(OCC(F)F)c2cc(N3CC(/C=C/c4c(-c5ccccc5C(F)(F)F)noc4C4CC4)C3)ccc2n1 [Example 182] |  |
|  | NC(=O)c1cc(OC2CC2)c2cc(N3CC4C(/C=C/c5c(-c6ccccc6C(F)(F)F)noc5C5CC5)C4C3)ccc2n1 (centres unmarked) [Example 183, (E)-4-Cyclopropoxy-6-(6-(2-(5-cyclopropyl-3-(2-(trifluoromethyl)phenyl)-isoxazol-4-yl)vinyl)-3-azabicyclo[3.1.0]hexan-3-yl)quinoline-2-carboxamide] | EC50 [3]: 908 nM |
|  | O=C(O)c1cc(OC2CC2)c2cc(N3CC4C(/C=C/c5c(-c6ccccc6C(F)(F)F)noc5C5CC5)C4C3)ccc2n1 (centres unmarked) [Example 184, (E)-4-Cyclopropoxy-6-(6-(2-(5-cyclopropyl-3-(2-(trifluoromethyl)phenyl)-isoxazol-4-yl)vinyl)-3-azabicyclo[3.1.0]hexan-3-yl)quinoline-2-carboxylic acid] | EC50 [3]: 50 nM |
| 11 nM | O=C(O)c1cc(O[C@H]2C[C@@H](F)C2)c2cc(N3CC4C(/C=C/c5c(-c6ccccc6C(F)(F)F)noc5C5CC5)C4C3)ccc2n1 (some centres unmarked) [Example 185] |  |
| 228 nM | COCc1cc(C(=O)O)nc2ccc(N3CC(/C=C/c4c(-c5ccccc5C(F)(F)F)noc4C4CC4)C3)cc12 [Example 186] |  |

| EC50 [1] | SMILES | also measured |
| --- | --- | --- |
| 348 nM | O=C(O)c1cc(O[C@H]2C[C@@H](F)C2)c2cc(N3CC(/C=C/c4c(-c5ccccc5C(F)(F)F)noc4C4CC4)C3)ccc2n1 [Example 187] |  |
| 1690 nM | O=C(O)c1cc(O[C@@H]2CCOC2)c2cc(N3CC(/C=C/c4c(-c5cccnc5C(F)(F)F)noc4C4CC4)C3)ccc2n1 [Example 188] |  |
| 650 nM | O=C(O)c1cc(O[C@H]2CCOC2)c2cc(N3CC(/C=C/c4c(-c5cccnc5C(F)(F)F)noc4C4CC4)C3)ccc2n1 [Example 189] |  |
| 376 nM | Cn1cc(C(=O)O)c(=O)c2ccc(N3CC4C(/C=C/c5c(-c6ccccc6C(F)(F)F)noc5C5CC5)C4C3)cc21 (centres unmarked) [Example 190] |  |
| 132 nM | CCn1cc(C(=O)O)c(=O)c2ccc(N3CC4C(/C=C/c5c(-c6ccccc6C(F)(F)F)noc5C5CC5)C4C3)cc21 (centres unmarked) [Example 192] |  |
| 343 nM | O=C(O)c1cc(O[C@H]2CCOC2)c2cc(N3CC(/C=C/c4c(-c5ccccc5C(F)(F)F)noc4C4CC4)C3)ccc2n1 [Example 193] |  |
| 159 nM | O=C(O)c1cc(O[C@H]2C[C@H](F)C2)c2cc(N3CC(/C=C/c4c(-c5ccccc5C(F)(F)F)noc4C4CC4)C3)ccc2n1 [Example 194] |  |
| 286 nM | O=C(O)c1cc(O[C@H]2C[C@@H](F)C2)c2cc(N3CC(/C=C/c4c(-c5cccnc5C(F)(F)F)noc4C4CC4)C3)ccc2n1 [Example 195] |  |
| 53 nM | O=C(O)c1cc(OC2CC2)c2cc(N3CC(/C=C/c4c(-c5ccccc5C(F)(F)F)noc4C4CC4)C3)ccc2n1 [Example 196] |  |
| 71 nM | COc1cc(C(=O)O)nc2c(F)cc(N3CC4C(/C=C/c5c(-c6c(Cl)cncc6Cl)noc5C5CC5)C4C3)cc12 (centres unmarked) [Example 198] |  |
| 63 nM | O=C(O)c1cc(O[C@H]2C[C@H](F)C2)c2cc(N3CC4C(/C=C/c5c(-c6ccccc6C(F)(F)F)noc5C5CC5)C4C3)ccc2n1 (some centres unmarked) [Example 199] |  |
| 21 nM | O=C(O)c1cc(OCC(F)F)c2cc(N3CC4C(/C=C/c5c(-c6c(Cl)cncc6Cl)noc5C5CC5)C4C3)ccc2n1 (centres unmarked) [Example 200] |  |
| 178 nM | Cn1cc(C(=O)O)c2ccc(N3CC(/C=C/c4c(-c5ccccc5C(F)(F)F)noc4C4CC4)C3)cc21 [Example 201] |  |
| 30 nM | [2H]C([2H])([2H])Oc1cc(C(=O)O)nc2ccc(N3CC4C(/C=C/c5c(-c6c(Cl)cncc6Cl)noc5C5CC5)C4C3)cc12 (centres unmarked) [Example 202] |  |
| 16 nM | O=C(O)c1cc(O[C@H]2C[C@@H](F)C2)c2cc(N3CC4C(/C=C/c5c(-c6c(Cl)cncc6Cl)noc5C5CC5)C4C3)ccc2n1 (some centres unmarked) [Example 203] |  |
| 19 nM | O=C(O)c1cc(O[C@H]2C[C@H](F)C2)c2cc(N3CC4C(/C=C/c5c(-c6c(Cl)cncc6Cl)noc5C5CC5)C4C3)ccc2n1 (some centres unmarked) [Example 204] |  |
| 189 nM | O=C(O)c1ccc(-c2ccc(N3CC(/C=C/c4c(-c5ccccc5C(F)(F)F)noc4C4CC4)C3)cc2)cc1 [Example 205] |  |
| 216 nM | COc1cc(C(=O)O)nc2ccc(N3CC(/C=C/c4c(-c5ccccc5OC(F)(F)F)noc4C4CC4)C3)cc12 [Example 206] |  |
| 64 nM | O=C(O)c1cccc(-c2ccc(N3CC(/C=C/c4c(-c5ccccc5C(F)(F)F)noc4C4CC4)C3)cc2)c1 [Example 207] |  |
|  | COc1cc(C(=O)O)cc(-c2csc(N3CC4C(/C=C/c5c(-c6c(Cl)cncc6Cl)noc5C5CC5)C4C3)n2)c1 (centres unmarked) [Example 208, (E)-3-(2-(6-(2-(5-Cyclopropyl-3-(3,5-dichloropyridin-4-yl)isoxazol-4-yl)vinyl)-3-azabicyclo[3.1.0]hexan-3-yl)thiazol-4-yl)-5-methoxybenzoic acid] | EC50 [3]: 247 nM |
| 472 nM | Cn1cc(C(=O)O)c2ncc(N3CC4C(/C=C/c5c(-c6c(Cl)cncc6Cl)noc5C5CC5)C4C3)cc21 (centres unmarked) [Example 209] |  |
|  | COc1cc(C(=O)O)cc(-c2nc(N3CC4C(/C=C/c5c(-c6c(Cl)cncc6Cl)noc5C5CC5)C4C3)ns2)c1 (centres unmarked) [Example 210, (E)-3-(3-(6-(2-(5-Cyclopropyl-3-(3,5-dichloropyridin-4-yl)isoxazol-4-yl)vinyl)-3-azabicyclo[3.1.0]hexan-3-yl)-1,2,4-thiadiazol-5-yl)-5-methoxybenzoic acid] | EC50 [3]: 670 nM |
| 154 nM | Cn1cc(C(=O)O)c2ncc(N3CC4C(/C=C/c5c(-c6ccccc6C(F)(F)F)noc5C5CC5)C4C3)cc21 (centres unmarked) [Example 211] |  |
| 21 nM | O=C(O)c1c2ccc(N3CC4C(/C=C/c5c(-c6c(Cl)cccc6Cl)noc5C5CC5)C4C3)cc2nn1CC1CC1 (centres unmarked) [Example 212] |  |
|  | COc1cc(C(=O)O)cc(-c2nsc(N3CC4C(/C=C/c5c(-c6c(Cl)cncc6Cl)noc5C5CC5)C4C3)n2)c1 (centres unmarked) [Example 214, (E)-3-(5-(6-(2-(5-Cyclopropyl-3-(3,5-dichloropyridin-4-yl)isoxazol-4-yl)vinyl)-3-azabicyclo[3.1.0]hexan-3-yl)-1,2,4-thiadiazol-3-yl)-5-methoxybenzoic acid] | EC50 [3]: 107 nM |
| 199 nM | COc1cc(C(=O)O)nc2c(F)cc(N3CC(/C=C/c4c(-c5ccccc5C(F)(F)F)noc4C4CC4)C3)cc12 [Example 215] |  |
